Measurements reported in the kinase profiling compilation of Christmann-Franck et al. (2016).

How the values were obtained:
Assay in all cases: radiometric filter-binding kinase assay, Kinase HotSpot
Conditions in all cases: compound 0.5 µM; ATP 10 µM
[1] = target: PHKG2 (human) (UniProt P15735)
[2] = target: GRK4 (human) (UniProt P32298)
[3] = target: ABL2 (human) (UniProt P42684)
[4] = target: STK33 (human) (UniProt Q9BYT3)
[5] = target: MAPKAPK5 (human) (UniProt Q8IW41)
[6] = target: STK11 (human) (UniProt Q15831)
[7] = target: BRSK1 (human) (UniProt Q8TDC3)
[8] = target: ADRBK2 (human) (UniProt P35626)
[9] = target: NTRK1 (human) (UniProt P04629)
NTRK1 (human), sequence (P04629 whole entry, looked up): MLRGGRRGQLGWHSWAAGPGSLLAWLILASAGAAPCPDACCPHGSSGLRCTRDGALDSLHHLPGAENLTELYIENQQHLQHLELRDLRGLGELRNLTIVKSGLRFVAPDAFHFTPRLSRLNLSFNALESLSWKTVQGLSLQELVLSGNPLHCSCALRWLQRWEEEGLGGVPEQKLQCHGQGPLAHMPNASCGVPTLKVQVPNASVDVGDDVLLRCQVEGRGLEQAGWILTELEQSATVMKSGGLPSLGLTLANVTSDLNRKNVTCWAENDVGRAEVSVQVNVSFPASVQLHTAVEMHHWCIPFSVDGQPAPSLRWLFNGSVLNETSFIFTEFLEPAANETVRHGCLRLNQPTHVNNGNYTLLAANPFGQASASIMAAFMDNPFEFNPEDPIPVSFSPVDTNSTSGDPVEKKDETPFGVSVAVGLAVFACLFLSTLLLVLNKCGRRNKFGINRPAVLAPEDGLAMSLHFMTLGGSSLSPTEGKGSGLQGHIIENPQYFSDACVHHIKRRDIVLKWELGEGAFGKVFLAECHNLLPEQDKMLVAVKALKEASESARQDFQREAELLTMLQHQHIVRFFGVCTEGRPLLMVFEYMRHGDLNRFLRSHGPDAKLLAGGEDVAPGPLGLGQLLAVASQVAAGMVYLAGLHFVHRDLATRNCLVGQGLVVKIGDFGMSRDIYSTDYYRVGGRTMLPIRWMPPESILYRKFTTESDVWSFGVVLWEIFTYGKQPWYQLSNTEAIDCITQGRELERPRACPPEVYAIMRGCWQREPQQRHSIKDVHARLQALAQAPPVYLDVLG

[10] = target: MET (human) (UniProt P08581)
[11] = target: AURKA (human) (UniProt O14965)
[12] = target: MAPK9 (human) (UniProt P45984)
[13] = target: TAOK2 (human) (UniProt Q9UL54)
TAOK2 (human), sequence (Q9UL54 whole entry, looked up): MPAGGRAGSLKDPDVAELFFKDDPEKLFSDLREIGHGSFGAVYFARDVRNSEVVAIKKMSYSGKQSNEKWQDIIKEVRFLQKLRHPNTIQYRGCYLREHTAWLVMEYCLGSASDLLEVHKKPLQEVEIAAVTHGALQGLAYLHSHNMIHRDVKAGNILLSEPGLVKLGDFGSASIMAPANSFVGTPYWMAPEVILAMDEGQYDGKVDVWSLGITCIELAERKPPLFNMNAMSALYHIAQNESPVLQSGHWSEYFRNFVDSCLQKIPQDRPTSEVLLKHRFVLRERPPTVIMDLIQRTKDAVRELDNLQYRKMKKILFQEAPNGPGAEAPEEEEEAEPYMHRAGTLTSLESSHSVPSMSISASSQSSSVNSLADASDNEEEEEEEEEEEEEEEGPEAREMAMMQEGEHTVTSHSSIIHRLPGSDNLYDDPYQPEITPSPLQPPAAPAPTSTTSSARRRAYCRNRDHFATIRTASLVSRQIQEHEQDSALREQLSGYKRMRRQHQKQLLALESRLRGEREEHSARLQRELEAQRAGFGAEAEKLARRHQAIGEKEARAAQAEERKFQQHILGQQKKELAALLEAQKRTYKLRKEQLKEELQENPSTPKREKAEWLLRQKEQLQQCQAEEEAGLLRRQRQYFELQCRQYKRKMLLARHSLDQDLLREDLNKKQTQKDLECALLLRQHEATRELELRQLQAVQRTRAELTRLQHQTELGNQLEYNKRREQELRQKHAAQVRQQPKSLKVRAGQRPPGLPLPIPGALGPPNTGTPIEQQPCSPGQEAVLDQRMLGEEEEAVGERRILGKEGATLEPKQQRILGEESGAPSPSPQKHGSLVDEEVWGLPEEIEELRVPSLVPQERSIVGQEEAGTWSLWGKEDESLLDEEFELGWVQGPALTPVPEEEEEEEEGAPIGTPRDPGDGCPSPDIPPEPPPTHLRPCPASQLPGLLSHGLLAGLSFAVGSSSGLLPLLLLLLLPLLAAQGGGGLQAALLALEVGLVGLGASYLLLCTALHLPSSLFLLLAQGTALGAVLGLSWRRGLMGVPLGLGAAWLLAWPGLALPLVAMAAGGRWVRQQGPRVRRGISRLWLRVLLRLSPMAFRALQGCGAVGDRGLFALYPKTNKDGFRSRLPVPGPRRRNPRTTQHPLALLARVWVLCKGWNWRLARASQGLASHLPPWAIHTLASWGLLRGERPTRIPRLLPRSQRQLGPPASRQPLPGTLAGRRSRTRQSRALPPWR

[14] = target: RPS6KA1 KD1 KD2 (human) (UniProt Q15418)
[15] = target: EPHA4 (human) (UniProt P54764)
[16] = target: JAK3 JH1 JH2 (human) (UniProt P52333)
[17] = target: MARK2 (human) (UniProt Q7KZI7)
[18] = target: TXK (human) (UniProt P42681)
[19] = target: CSNK1E (human) (UniProt P49674)
CSNK1E (human), sequence (P49674 whole entry, looked up): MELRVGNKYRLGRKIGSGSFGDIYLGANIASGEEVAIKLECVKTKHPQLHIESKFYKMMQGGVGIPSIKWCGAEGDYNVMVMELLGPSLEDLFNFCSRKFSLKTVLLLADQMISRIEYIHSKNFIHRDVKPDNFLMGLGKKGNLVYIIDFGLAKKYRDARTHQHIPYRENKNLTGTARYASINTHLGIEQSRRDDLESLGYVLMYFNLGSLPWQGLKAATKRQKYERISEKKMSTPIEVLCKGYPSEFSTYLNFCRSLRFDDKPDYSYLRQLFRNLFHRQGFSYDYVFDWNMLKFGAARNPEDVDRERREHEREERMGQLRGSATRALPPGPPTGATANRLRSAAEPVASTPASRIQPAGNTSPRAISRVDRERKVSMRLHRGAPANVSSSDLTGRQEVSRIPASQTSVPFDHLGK

[20] = target: HIPK2 (human) (UniProt Q9H2X6)
[21] = target: MYLK (human) (UniProt Q15746)
[22] = target: EPHB3 (human) (UniProt P54753)
EPHB3 (human), sequence (P54753 whole entry, looked up): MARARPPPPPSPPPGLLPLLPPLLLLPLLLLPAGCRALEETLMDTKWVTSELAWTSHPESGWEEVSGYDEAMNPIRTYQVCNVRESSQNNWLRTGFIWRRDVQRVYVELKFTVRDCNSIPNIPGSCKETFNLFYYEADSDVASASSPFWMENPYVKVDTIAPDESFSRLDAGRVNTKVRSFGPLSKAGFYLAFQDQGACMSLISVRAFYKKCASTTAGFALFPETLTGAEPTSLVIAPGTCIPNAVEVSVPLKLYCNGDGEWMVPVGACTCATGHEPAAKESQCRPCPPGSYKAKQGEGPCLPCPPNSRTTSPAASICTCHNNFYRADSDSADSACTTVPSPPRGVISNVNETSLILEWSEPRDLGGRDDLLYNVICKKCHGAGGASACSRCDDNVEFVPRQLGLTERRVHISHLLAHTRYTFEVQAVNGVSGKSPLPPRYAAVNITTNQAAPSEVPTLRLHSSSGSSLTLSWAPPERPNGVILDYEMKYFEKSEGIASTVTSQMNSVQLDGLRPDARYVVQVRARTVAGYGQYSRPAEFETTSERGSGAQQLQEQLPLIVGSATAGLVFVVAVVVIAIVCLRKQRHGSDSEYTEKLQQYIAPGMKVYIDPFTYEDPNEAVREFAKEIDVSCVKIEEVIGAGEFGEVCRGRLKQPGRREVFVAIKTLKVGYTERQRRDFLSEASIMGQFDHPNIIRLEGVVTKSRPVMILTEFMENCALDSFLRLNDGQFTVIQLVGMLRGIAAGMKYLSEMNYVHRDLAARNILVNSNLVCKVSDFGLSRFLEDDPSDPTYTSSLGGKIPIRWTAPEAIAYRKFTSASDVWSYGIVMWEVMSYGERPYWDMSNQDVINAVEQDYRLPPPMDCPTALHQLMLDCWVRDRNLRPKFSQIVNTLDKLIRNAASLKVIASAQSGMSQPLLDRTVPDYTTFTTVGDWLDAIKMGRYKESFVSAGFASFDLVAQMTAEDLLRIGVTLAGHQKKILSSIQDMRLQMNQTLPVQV

[23] = target: RIPK2 (human) (UniProt O43353)
[24] = target: NUAK1 (human) (UniProt O60285)
[25] = target: GRK6 (human) (UniProt P43250)
[26] = target: PIM2 (human) (UniProt Q9P1W9)
[27] = target: CDK2 CCNA2 (human) (UniProt P24941+P20248)
[28] = target: MAP3K8 (human) (UniProt P41279)
[29] = target: MERTK (human) (UniProt Q12866)
[30] = target: CSNK1A1 (human) (UniProt P48729)
CSNK1A1 (human), sequence (P48729 whole entry, looked up): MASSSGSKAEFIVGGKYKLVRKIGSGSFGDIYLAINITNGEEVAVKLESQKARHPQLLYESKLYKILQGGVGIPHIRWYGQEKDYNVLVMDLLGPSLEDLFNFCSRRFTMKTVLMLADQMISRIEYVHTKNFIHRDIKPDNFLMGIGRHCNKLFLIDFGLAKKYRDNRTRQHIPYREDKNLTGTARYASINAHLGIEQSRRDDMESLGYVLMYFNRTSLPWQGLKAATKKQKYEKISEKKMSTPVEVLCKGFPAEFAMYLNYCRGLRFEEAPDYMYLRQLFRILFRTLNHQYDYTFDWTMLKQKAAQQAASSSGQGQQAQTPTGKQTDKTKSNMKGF

[31] = target: NEK3 (human) (UniProt P51956)
[32] = target: CDK9 CCNT1 (human) (UniProt P50750+O60563)
[33] = target: EPHA8 (human) (UniProt P29322)
[34] = target: STK3 (human) (UniProt Q13188)
[35] = target: ACVR1B (human) (UniProt P36896)
[36] = target: PRKCA (human) (UniProt P17252)
[37] = target: CSNK1G3 (human) (UniProt Q9Y6M4)
[38] = target: NLK (human) (UniProt Q9UBE8)
[39] = target: NUAK2 (human) (UniProt Q9H093)
[40] = target: CDC42BPB (human) (UniProt Q9Y5S2)

ABL2 (human), sequence (P42684 whole entry, looked up): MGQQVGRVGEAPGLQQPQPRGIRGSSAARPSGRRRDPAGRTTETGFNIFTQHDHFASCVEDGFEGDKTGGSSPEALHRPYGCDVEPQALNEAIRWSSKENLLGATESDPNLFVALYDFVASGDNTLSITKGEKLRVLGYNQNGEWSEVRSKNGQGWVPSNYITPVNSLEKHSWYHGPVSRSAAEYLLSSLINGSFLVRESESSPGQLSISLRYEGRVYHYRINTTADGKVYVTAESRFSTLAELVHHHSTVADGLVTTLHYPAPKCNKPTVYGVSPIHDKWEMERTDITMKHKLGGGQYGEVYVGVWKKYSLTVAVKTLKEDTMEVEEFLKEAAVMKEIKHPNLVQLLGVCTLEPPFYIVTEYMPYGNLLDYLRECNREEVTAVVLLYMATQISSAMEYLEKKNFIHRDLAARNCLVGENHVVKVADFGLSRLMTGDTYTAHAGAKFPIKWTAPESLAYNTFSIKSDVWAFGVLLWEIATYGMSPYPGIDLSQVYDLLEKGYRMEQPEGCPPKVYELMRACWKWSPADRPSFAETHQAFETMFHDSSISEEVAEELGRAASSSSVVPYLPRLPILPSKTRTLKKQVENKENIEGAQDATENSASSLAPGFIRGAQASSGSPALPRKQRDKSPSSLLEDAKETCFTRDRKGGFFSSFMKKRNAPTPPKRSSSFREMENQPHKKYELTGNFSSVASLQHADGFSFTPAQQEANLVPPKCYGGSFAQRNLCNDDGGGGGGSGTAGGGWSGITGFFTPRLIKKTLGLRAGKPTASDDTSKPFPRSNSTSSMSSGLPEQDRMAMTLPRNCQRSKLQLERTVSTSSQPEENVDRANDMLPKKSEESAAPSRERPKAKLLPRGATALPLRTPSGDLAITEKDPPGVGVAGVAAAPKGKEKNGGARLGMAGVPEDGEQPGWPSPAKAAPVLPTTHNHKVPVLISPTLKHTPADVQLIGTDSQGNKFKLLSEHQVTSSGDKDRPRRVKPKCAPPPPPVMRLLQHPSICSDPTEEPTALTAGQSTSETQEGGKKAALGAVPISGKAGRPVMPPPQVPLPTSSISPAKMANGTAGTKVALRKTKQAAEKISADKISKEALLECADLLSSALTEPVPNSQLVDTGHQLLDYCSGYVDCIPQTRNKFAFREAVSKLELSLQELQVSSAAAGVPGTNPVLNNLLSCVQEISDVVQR

Question: What does the source list for `Clc1ccc(Nc2nnc(Cc3ccncc3)c3ccccc23)cc1`?
Answer: residual activity [1]: 91.8%; residual activity [2]: 91.3%; residual activity [3]: 101%; residual activity [4]: 94.2%; residual activity [5]: 97.8%; residual activity [6]: 97.3%; residual activity [7]: 93.1%; residual activity [8]: 92.9%; residual activity [9]: 98.7%; residual activity [10]: 94%; residual activity [11]: 79%; residual activity [12]: 97.5%; residual activity [13]: 85.4%; residual activity [14]: 113%; residual activity [15]: 102%; residual activity [16]: 92.1%; residual activity [17]: 133%; residual activity [18]: 110%; residual activity [19]: 99.1%; residual activity [20]: 101%; residual activity [21]: 97.5%; residual activity [22]: 65.1%; residual activity [23]: 111%; residual activity [24]: 112%; residual activity [25]: 99.9%; residual activity [26]: 95.8%; residual activity [27]: 87.7%; residual activity [28]: 98.2%; residual activity [29]: 116%; residual activity [30]: 95%; residual activity [31]: 94.1%; residual activity [32]: 94.9%; residual activity [33]: 100%; residual activity [34]: 92.1%; residual activity [35]: 108%; residual activity [36]: 75.8%; residual activity [37]: 100%; residual activity [38]: 99.3%; residual activity [39]: 105%; residual activity [40]: 99.5%
